{"source": "ChEMBL document CHEMBL4507276", "about": "(2021)", "details_in_all_cases": "Compound concentration 1000.0 nM", "key": {"[1]": {"biological_target": "Ephrin type-A receptor 3 (Homo sapiens) (UniProt P29320)", "sequence (P29320 whole entry)": "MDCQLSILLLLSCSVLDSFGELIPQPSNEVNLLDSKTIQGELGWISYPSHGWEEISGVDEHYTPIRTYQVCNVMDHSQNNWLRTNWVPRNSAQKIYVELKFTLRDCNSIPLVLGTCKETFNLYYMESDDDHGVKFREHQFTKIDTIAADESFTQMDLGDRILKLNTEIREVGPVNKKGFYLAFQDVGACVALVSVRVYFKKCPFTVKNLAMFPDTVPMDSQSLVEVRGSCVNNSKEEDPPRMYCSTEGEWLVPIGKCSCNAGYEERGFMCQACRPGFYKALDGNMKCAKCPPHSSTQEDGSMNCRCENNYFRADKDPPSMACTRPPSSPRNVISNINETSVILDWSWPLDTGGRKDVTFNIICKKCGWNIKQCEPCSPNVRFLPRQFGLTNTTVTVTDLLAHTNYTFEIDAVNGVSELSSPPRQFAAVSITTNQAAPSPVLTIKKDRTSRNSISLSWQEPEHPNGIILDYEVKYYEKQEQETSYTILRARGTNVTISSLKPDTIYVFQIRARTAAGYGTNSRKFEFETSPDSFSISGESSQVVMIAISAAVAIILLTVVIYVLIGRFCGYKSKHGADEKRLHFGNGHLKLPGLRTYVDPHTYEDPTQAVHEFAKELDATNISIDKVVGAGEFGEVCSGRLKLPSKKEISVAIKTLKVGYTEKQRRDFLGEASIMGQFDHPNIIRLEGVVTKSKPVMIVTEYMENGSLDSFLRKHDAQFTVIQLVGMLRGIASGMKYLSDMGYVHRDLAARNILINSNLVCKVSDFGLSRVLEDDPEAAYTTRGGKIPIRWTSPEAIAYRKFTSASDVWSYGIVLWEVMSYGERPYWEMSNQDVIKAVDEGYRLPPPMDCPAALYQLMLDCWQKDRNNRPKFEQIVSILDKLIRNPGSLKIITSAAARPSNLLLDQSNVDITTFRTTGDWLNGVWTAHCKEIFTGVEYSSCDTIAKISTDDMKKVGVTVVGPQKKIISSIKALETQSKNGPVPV"}, "[2]": {"biological_target": "Receptor-type tyrosine-protein kinase FLT3 (Homo sapiens) (UniProt P36888)", "sequence (P36888 whole entry)": "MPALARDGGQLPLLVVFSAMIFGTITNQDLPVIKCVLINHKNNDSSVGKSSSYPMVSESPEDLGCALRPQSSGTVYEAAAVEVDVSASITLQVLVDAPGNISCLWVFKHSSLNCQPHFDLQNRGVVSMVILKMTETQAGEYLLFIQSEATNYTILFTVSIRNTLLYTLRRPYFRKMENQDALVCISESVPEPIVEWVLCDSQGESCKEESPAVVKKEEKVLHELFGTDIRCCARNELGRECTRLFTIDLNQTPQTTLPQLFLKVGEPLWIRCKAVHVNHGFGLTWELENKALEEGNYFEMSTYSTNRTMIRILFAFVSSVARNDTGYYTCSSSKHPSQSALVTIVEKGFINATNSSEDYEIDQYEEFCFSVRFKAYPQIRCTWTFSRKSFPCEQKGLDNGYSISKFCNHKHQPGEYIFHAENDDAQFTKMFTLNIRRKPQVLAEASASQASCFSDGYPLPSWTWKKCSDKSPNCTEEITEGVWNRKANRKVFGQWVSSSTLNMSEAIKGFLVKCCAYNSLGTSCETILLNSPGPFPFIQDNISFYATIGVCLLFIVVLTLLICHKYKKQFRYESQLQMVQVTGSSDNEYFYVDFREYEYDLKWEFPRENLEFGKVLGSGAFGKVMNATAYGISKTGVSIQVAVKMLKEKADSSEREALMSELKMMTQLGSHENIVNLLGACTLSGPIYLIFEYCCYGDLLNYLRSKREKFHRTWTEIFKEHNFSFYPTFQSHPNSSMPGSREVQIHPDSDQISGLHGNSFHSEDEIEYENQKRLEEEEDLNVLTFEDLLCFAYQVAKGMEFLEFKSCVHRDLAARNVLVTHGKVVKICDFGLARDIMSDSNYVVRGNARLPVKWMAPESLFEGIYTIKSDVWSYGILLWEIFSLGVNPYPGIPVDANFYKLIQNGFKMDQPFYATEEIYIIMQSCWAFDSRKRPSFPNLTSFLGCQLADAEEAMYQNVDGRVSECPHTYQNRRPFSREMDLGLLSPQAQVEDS"}, "[3]": {"biological_target": "Tyrosine-protein kinase FRK (Homo sapiens) (UniProt P42685)", "sequence (P42685 whole entry)": "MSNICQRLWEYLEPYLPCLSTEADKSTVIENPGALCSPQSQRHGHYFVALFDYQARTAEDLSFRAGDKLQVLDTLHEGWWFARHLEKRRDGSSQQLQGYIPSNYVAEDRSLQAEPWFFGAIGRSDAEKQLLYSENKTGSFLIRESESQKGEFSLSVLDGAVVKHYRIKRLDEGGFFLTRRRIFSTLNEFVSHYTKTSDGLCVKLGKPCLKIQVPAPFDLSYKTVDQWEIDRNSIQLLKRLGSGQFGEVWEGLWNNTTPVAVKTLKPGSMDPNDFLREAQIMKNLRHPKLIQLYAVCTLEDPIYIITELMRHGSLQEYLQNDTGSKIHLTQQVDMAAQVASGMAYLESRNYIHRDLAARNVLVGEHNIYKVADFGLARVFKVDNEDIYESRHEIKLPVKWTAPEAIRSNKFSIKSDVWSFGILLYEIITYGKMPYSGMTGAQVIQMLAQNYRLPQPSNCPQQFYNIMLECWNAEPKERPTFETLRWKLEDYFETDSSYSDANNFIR"}, "[4]": {"biological_target": "T1, Inhibitor of nuclear factor kappa-B kinase subunit alpha (Homo sapiens) (UniProt O15111)", "T1 sequence (whole entry)": "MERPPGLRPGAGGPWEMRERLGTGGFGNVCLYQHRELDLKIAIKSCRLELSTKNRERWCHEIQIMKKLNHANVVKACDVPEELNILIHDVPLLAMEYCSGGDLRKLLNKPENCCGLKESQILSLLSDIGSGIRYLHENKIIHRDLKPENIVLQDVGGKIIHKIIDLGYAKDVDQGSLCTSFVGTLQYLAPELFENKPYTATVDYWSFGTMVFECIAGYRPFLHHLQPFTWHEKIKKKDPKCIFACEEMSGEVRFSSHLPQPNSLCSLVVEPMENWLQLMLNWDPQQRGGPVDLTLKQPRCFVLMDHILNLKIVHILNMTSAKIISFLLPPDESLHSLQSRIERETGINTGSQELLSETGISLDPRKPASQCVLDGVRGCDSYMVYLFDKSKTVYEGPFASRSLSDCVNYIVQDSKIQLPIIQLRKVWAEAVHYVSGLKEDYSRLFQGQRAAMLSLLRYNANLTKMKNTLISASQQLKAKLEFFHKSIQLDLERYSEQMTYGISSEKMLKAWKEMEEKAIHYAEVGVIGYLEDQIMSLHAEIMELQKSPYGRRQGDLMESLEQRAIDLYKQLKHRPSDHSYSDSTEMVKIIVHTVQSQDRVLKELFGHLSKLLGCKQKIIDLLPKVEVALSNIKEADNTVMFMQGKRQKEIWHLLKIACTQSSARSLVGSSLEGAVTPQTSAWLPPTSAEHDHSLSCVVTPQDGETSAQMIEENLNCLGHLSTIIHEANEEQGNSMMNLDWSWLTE"}, "[5]": {"biological_target": "T2, Inhibitor of nuclear factor kappa-B kinase subunit beta (Homo sapiens) (UniProt O14920)", "T2 sequence (whole entry)": "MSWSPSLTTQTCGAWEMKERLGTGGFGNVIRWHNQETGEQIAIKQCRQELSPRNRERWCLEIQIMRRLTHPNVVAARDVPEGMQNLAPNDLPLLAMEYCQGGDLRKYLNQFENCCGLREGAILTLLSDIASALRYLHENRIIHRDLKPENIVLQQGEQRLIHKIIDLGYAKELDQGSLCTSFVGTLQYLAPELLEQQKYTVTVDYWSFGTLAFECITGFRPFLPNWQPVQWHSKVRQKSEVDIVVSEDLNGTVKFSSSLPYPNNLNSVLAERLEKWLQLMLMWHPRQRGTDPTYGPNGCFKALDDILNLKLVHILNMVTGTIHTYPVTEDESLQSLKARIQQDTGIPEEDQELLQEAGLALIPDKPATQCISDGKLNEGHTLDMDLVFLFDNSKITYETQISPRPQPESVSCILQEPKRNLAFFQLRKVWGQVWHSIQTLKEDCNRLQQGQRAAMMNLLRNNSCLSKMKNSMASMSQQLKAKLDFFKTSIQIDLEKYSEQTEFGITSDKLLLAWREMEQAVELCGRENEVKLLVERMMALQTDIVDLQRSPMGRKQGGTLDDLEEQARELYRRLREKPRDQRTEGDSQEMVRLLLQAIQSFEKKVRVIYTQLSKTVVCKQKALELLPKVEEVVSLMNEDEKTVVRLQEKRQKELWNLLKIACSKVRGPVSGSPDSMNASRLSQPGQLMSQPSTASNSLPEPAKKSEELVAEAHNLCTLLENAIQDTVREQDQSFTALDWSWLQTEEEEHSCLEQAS"}, "[6]": {"biological_target": "Serine/threonine-protein kinase Nek5 (Homo sapiens) (UniProt Q6P3R8)", "sequence (Q6P3R8 whole entry)": "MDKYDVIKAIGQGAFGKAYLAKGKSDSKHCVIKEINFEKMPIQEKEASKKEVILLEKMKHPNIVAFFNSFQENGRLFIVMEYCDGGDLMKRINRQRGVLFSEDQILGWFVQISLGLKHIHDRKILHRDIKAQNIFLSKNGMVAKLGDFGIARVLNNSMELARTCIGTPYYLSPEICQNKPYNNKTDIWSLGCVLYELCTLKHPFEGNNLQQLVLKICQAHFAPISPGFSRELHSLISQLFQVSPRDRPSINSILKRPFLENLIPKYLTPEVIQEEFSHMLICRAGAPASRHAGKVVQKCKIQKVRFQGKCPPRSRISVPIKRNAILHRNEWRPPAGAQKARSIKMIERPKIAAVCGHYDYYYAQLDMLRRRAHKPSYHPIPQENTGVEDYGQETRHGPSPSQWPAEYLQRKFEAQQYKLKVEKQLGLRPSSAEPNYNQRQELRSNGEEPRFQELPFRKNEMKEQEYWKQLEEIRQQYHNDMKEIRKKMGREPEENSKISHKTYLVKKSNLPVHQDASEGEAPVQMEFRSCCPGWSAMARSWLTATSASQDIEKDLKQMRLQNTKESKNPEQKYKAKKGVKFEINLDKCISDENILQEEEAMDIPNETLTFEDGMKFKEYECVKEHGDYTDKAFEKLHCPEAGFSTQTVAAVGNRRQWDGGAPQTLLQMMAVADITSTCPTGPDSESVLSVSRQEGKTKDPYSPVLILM"}, "[7]": {"biological_target": "3-phosphoinositide-dependent protein kinase 1 (Homo sapiens) (UniProt O15530)", "sequence (O15530 whole entry)": "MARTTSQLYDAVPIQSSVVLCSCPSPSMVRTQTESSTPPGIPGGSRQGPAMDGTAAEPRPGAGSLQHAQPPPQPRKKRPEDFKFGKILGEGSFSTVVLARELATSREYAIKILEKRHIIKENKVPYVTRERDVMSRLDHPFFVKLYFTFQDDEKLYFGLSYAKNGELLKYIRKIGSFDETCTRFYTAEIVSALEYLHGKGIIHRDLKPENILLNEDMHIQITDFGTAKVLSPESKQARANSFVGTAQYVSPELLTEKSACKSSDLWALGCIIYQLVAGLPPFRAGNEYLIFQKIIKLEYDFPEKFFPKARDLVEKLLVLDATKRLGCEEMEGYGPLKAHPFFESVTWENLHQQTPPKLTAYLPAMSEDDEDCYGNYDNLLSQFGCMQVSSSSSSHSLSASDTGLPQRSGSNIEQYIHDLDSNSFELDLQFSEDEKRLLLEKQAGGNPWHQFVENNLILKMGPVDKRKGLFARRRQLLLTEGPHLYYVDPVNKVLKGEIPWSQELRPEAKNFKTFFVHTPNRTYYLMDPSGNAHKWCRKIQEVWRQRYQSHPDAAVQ"}, "[8]": {"biological_target": "T3, cAMP-dependent protein kinase catalytic subunit PRKX (Homo sapiens) (UniProt P51817)", "T3 sequence (whole entry)": "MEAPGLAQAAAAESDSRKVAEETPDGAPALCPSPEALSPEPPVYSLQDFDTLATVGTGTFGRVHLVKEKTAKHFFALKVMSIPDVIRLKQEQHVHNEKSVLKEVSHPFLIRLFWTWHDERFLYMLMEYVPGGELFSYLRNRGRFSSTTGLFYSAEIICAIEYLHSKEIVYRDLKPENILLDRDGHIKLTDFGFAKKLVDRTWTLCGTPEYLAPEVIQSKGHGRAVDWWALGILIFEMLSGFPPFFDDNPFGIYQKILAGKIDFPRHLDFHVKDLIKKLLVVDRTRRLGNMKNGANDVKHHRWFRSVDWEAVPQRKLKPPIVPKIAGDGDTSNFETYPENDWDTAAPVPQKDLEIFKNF"}, "[9]": {"biological_target": "Serine/threonine-protein kinase RIO2 (Homo sapiens) (UniProt Q9BVS4)", "sequence (Q9BVS4 whole entry, looked up)": "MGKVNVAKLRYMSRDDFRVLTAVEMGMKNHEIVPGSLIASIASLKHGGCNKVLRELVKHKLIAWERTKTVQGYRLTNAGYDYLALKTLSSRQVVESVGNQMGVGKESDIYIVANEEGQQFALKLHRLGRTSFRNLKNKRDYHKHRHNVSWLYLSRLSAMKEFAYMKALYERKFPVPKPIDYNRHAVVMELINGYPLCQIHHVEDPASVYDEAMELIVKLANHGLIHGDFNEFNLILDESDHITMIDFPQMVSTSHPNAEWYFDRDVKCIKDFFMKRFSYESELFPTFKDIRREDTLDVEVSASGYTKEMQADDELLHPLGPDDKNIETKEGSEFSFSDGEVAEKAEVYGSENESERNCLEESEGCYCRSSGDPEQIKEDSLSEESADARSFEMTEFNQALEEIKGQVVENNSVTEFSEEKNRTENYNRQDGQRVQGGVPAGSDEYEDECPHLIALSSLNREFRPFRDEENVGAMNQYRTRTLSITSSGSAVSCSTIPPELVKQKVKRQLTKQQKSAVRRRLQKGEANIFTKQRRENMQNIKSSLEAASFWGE"}, "[10]": {"biological_target": "Tyrosine-protein kinase SYK (Homo sapiens) (UniProt P43405)"}}}
{"molecule": "CN(C)C(=O)Cn1cc(-c2nc(C3(c4ccc(-c5cnc(N)nc5)cc4)CC3)no2)cn1", "note": "[BI 0153]", "values": [{"measurement": "residual activity", "setting": "[1]", "result": 89, "unit": "%"}, {"measurement": "residual activity", "setting": "[2]", "result": 90, "unit": "%"}, {"measurement": "residual activity", "setting": "[3]", "result": 100, "unit": "%"}, {"measurement": "residual activity", "setting": "[4]", "result": 100, "unit": "%"}, {"measurement": "residual activity", "setting": "[5]", "result": 90, "unit": "%"}, {"measurement": "residual activity", "setting": "[6]", "result": 89, "unit": "%"}, {"measurement": "residual activity", "setting": "[7]", "result": 82, "unit": "%"}, {"measurement": "residual activity", "setting": "[8]", "result": 100, "unit": "%"}, {"measurement": "residual activity", "setting": "[9]", "result": 76, "unit": "%"}, {"measurement": "residual activity", "setting": "[10]", "result": 77, "unit": "%"}]}
{"molecule": "CN(C)C(=O)Cn1cc(-c2nc([C@@](C)(c3ccc(-c4cnc(N)nc4)cc3)C3CC3)no2)cn1", "note": "[BI 665915]", "values": [{"measurement": "residual activity", "setting": "[1]", "result": 100, "unit": "%"}, {"measurement": "residual activity", "setting": "[2]", "result": 97, "unit": "%"}, {"measurement": "residual activity", "setting": "[3]", "result": 90, "unit": "%"}, {"measurement": "residual activity", "setting": "[4]", "result": 0, "unit": "%"}, {"measurement": "residual activity", "setting": "[5]", "result": 100, "unit": "%"}, {"measurement": "residual activity", "setting": "[6]", "result": 89, "unit": "%"}, {"measurement": "residual activity", "setting": "[7]", "result": 99, "unit": "%"}, {"measurement": "residual activity", "setting": "[8]", "result": 100, "unit": "%"}, {"measurement": "residual activity", "setting": "[9]", "result": 87, "unit": "%"}, {"measurement": "residual activity", "setting": "[10]", "result": 73, "unit": "%"}]}
